Each molecule was assayed on JR251 or RBL cells (assay: Store-operated calcium entry, either JR251 or RBL cells, or both).
Type: cell-based
Outline: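 Orai1/STIM1 stable cells: fluo-4-AM loaded, compound 30 min at RT in Ca2+-free HBSS, then CaCl2 added; IC50 from Peak-Basal FLIPR fluorescence. RBL-2H3 cells: compound 5 min, then thapsigargin (5.5× stock, 5.5 uM) 25 min, then calcium added; IC50 from Upslope (signal 7 s after calcium minus baseline).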

SMILES | IC50 [µM]
O=C(Nc1scc(-c2cc3cccc(O)c3o2)c1C(=O)O)c1cc2ccccn2n1 [4-(7-hydroxybenzofuran-2-yl)-2-(pyrazolo[1,5-a]pyridine-2-carboxamido)thiophene-3-carboxylic acid] | < 10
O=C(Nc1scc(-c2ccc(Cl)cc2)c1C(=O)O)c1nc2cccc(Br)c2o1 [2-(7-bromobenzo[d]oxazole-2-carboxamido)-4-(4-chlorophenyl) thiophene-3-carboxylic acid] | < 10
Cc1ccc(-c2csc(NC(=O)c3sccc3C)c2C(=O)O)cc1C [4-(3,4-dimethylphenyl)-2-(3-methylthiophene-2-carboxamido)thiophene-3-carboxylic acid] | < 10
O=C(Nc1scc(-c2ccc(Cl)cc2)c1C(=O)O)c1ccc(C(F)(F)F)nc1 [4-(4-chlorophenyl)-2-(6-(trifluoromethyl)nicotinamido)thiophene-3-carboxylic acid] | < 10
O=C(Nc1scc(-c2ccc(Br)cc2)c1C(=O)O)c1ccc2snnc2c1 [2-(benzo[d][1,2,3]thiadiazole-5-carboxamido)-4-(4-bromophenyl)thiophene-3-carboxylic acid] | < 10
Cc1ccc(C(=O)Nc2scc(-c3ccc(Cl)cc3)c2C(=O)O)cn1 [4-(4-chlorophenyl)-2-(6-methylnicotinamido)thiophene-3-carboxylic acid] | < 10
COC1CCCC(C(=O)Nc2scc(-c3ccc(Br)cc3)c2C(=O)O)C1 (centres unmarked) [4-(4-bromophenyl)-2-(3-methoxycyclohexanecarboxamido)thiophene-3-carboxylic acid] | < 10
Cc1ccc(-c2csc(NC(=O)c3scc(S(C)(=O)=O)c3Cl)c2C(=O)O)cc1 [2-(3-chloro-4-(methylsulfonyl)thiophene-2-carboxamido)-4-p-tolylthiophene-3-carboxylic acid] | < 10
O=C(Nc1scc(-c2ccc(OC(F)(F)F)cc2)c1C(=O)O)c1nc2ccccc2o1 [2-(benzo[d]oxazole-2-carboxamido)-4-(4-(trifluoromethoxy)phenyl)thiophene-3-carboxylic acid] | < 10
O=C(Nc1scc(-c2cc3ccc(Br)cc3o2)c1C(=O)O)c1cc2ccccc2o1 [2-(benzofuran-2-carboxamido)-4-(6-bromobenzofuran-2-yl)thiophene-3-carboxylic acid] | < 10
COc1cc(C)c(-c2csc(NC(=O)c3cc4ccccc4o3)c2C(=O)O)c(C)c1 [2-(benzofuran-2-carboxamido)-4-(4-methoxy-2,6-dimethylphenyl)thiophene-3-carboxylic acid] | < 10
Cc1ccc(-c2csc(NC(=O)c3cc(C)n(C)n3)c2C(=O)O)cc1 [2-(1,5-dimethyl-1H-pyrazole-3-carboxamido)-4-p-tolylthiophene-3-carboxylic acid] | < 10
Cn1cnc(C(=O)Nc2scc(-c3ccc(Br)cc3)c2C(=O)O)c1 [4-(4-bromophenyl)-2-(1-methyl-1H-imidazole-4-carboxamido)thiophene-3-carboxylic acid] | < 10
O=C(Nc1scc(-c2ccc(Br)cc2)c1C(=O)O)c1nc2cccc(F)c2o1 [4-(4-bromophenyl)-2-(7-fluorobenzo[d]oxazole-2-carboxamido)thiophene-3-carboxylic acid] | < 10
Cc1ccc(-c2csc(NC(=O)c3nc4cccc(C#N)c4o3)c2C(=O)O)c(F)c1F [2-(7-cyanobenzo[d]oxazole-2-carboxamido)-4-(2,3-difluoro-4-methylphenyl)thiophene-3-carboxylic acid] | < 10
Cc1ccc(-c2csc(NC(=O)c3ccc(-c4cccs4)s3)c2C(=O)O)cc1 [2-(2,2′-bithiophene-5-carboxamido)-4-p-tolylthiophene-3-carboxylic acid] | < 10
O=C(Nc1scc(-c2ccc(Cl)c(F)c2)c1C(=O)O)c1ccc2snnc2c1 [2-(benzo[d][1,2,3]thiadiazole-5-carboxamido)-4-(4-chloro-3-fluorophenyl)thiophene-3-carboxylic acid] | < 10
O=C(Nc1scc(-c2ccc(Br)cc2)c1C(=O)O)c1cnc2ccccc2n1 [4-(4-bromophenyl)-2-(quinoxaline-2-carboxamido)thiophene-3-carboxylic acid] | < 10
O=C(Nc1scc(-c2ccc(Br)cc2)c1C(=O)O)c1ccc(-c2ccccc2)s1 [4-(4-bromophenyl)-2-(5-phenylthiophene-2-carboxamido)thiophene-3-carboxylic acid] | < 10
O=C(Nc1scc(-c2ccc(Br)cc2)c1C(=O)O)c1ccncc1 [4-(4-bromophenyl)-2-(isonicotinamido)thiophene-3-carboxylic acid] | < 10
Cc1cc(C(=O)Nc2scc(-c3ccc(Cl)cc3)c2C(=O)O)c(C)o1 [4-(4-chlorophenyl)-2-(2,5-dimethylfuran-3-carboxamido)thiophene-3-carboxylic acid] | < 10
Cc1ccc(-c2csc(NC(=O)c3ccsc3)c2C(=O)O)cc1 [2-(thiophene-3-carboxamido)-4-p-tolylthiophene-3-carboxylic acid] | < 10
O=C(Nc1scc(-c2ccc(Cl)cc2)c1C(=O)O)c1nc(C2CC2)cs1 [4-(4-chlorophenyl)-2-(4-cyclopropylthiazole-2-carboxamido)thiophene-3-carboxylic acid] | < 10

Further lines, results first:

IC50 [µM] | SMILES
< 10 | O=C(CCc1ccc(F)c(F)c1)Nc1scc(-c2ccc(Br)cc2)c1C(=O)O [4-(4-bromophenyl)-2-(3-(3,4-difluorophenyl)propanamido)thiophene-3-carboxylic acid]
< 10 | O=C(Nc1scc(-c2ccc(C(F)(F)F)cc2Cl)c1C(=O)O)c1nc2ccccc2o1 [2-(benzo[d]oxazole-2-carboxamido)-4-(2-chloro-4-(trifluoromethyl)phenyl)thiophene-3-carboxylic acid]
< 10 | O=C(Nc1scc(-c2ccc(Cl)cc2)c1C(=O)O)c1nnc2ccccc2n1 [2-(benzo[e][1,2,4]triazine-3-carboxamido)-4-(4-chlorophenyl)thiophene-3-carboxylic acid]
< 10 | O=C(Nc1scc(-c2ccc(Cl)cc2)c1C(=O)O)c1cc2ccccn2n1 [4-(4-chlorophenyl)-2-(pyrazolo[1,5-a]pyridine-2-carboxamido)thiophene-3-carboxylic acid]
< 10 | O=C(CSc1ccccc1)Nc1scc(-c2ccc(C(F)(F)F)cc2)c1C(=O)O [2-(2-(phenylthio)acetamido)-4-(4-(trifluoromethyl)phenyl)thiophene-3-carboxylic acid]
< 10 | O=C(CCc1ccc(F)cc1)Nc1scc(-c2ccc(Cl)cc2)c1C(=O)O [4-(4-chlorophenyl)-2-(3-(4-fluorophenyl)propanamido)thiophene-3-carboxylic acid]
< 10 | CC(Cc1ccccc1)C(=O)Nc1scc(-c2ccc(Br)cc2)c1C(=O)O (centres unmarked) [4-(4-bromophenyl)-2-(2-methyl-3-phenylpropanamido)thiophene-3-carboxylic acid]
< 10 | O=C(CCc1ccccc1)Nc1scc(-c2ccc(Br)cc2)c1C(=O)O [4-(4-bromophenyl)-2-(3-phenylpropanamido)thiophene-3-carboxylic acid]
< 10 | O=C(CCc1ccc(F)cc1F)Nc1scc(-c2ccc(Br)cc2)c1C(=O)O [4-(4-bromophenyl)-2-(3-(2,4-difluorophenyl)propanamido)thiophene-3-carboxylic acid]
< 10 | O=C(CCc1ccccc1)Nc1scc(-c2ccc(Cl)cc2F)c1C(=O)O [4-(4-chloro-2-fluorophenyl)-2-(3-phenylpropanamido)thiophene-3-carboxylic acid]
< 10 | CC(C)(C)C(Cc1ccccc1)C(=O)Nc1scc(-c2ccc(Cl)cc2)c1C(=O)O (centres unmarked) [2-(2-benzyl-3,3-dimethylbutanamido)-4-(4-chlorophenyl)thiophene-3-carboxylic acid]
< 10 | COc1cccc(C(=O)Nc2scc(-c3ccc(Cl)cc3)c2C(=O)O)n1 [4-(4-chlorophenyl)-2-(6-methoxypicolinamido)thiophene-3-carboxylic acid]
< 10 | O=C(Nc1scc(-c2ccc(Cl)cc2)c1C(=O)O)c1ncc(-c2ccccc2)cn1 [4-(4-chlorophenyl)-2-(5-phenylpyrimidine-2-carboxamido)thiophene-3-carboxylic acid]
< 10 | O=C(O)c1c(-c2ccc(Cl)cc2)csc1NC(=O)C1CCc2ccccc2C1 (centres unmarked) [4-(4-chlorophenyl)-2-(1,2,3,4-tetrahydronaphthalene-2-carboxamido)thiophene-3-carboxylic acid]
< 10 | Cc1cc(F)c(-c2csc(NC(=O)c3cc4ccccc4o3)c2C(=O)O)cc1Cl [2-(benzofuran-2-carboxamido)-4-(5-chloro-2-fluoro-4-methylphenyl)thiophene-3-carboxylic acid]
< 10 | O=C(Nc1scc(-c2ccc(F)c(O)c2F)c1C(=O)O)c1cc2ccccc2o1 [2-(benzofuran-2-carboxamido)-4-(2,4-difluoro-3-hydroxyphenyl)thiophene-3-carboxylic acid]
< 10 | Cc1ccsc1C(=O)Nc1scc(-c2cccc(Cl)c2)c1C(=O)O [4-(3-chlorophenyl)-2-(3-methylthiophene-2-carboxamido)thiophene-3-carboxylic acid]
< 10 | O=C(NCc1ccccc1)Nc1scc(-c2ccc(Cl)cc2)c1C(=O)O [2-(3-benzylureido)-4-(4-chlorophenyl)thiophene-3-carboxylic acid]
< 10 | Cc1cc(Cl)ccc1-c1csc(NC(=O)c2nc3ccccc3o2)c1C(=O)O [2-(benzo[d]oxazole-2-carboxamido)-4-(4-chloro-2-methylphenyl)thiophene-3-carboxylic acid]
< 10 | O=C(Nc1scc(-c2ccc(Cl)c(F)c2)c1C(=O)O)c1nc2ccccc2o1 [2-(benzo[d]oxazole-2-carboxamido)-4-(4-chloro-3-fluorophenyl)thiophene-3-carboxylic acid]
< 10 | O=C(O)c1c(-c2ccc(Cl)cc2Cl)csc1NC(=O)C1CC1 [2-(cyclopropanecarboxamido)-4-(2,4-dichlorophenyl)thiophene-3-carboxylic acid]
